# Tests used:
# Test in all cases: relative viability (nuclei count vs DMSO), 5 days (fraction); higher = more cells survive
# [1] = compound: COc1cc(-c2nn([C@H]3CC[C@H](N4CCN(C(C)=O)CC4)CC3)c3ncnc(N)c23)ccc1NC(=O)c1cc2ccccc2n1C + CC(=O)Nc1cccc(-n2c(=O)n(C3CC3)c(=O)c3c(Nc4ccc(I)cc4F)n(C)c(=O)c(C)c32)c1 [Trametinib] (partner 0.02 µM)
# Method in brief: (§1)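 One day after seeding in 1536-well plates, lung cancer cell lines were dosed by pin tool. Dosing was either single-drug or a fixed anchor-drug dose plus five library-drug doses (not always all listed) in √10 steps. After 5 days, nuclei were stained in one fix-and-stain step and counted on 4× images, and relative viability is the nuclei count of treated wells over that of vehicle wells, given as the median of duplicate plates.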
# [2] = compound: COc1cc(-c2nn([C@H]3CC[C@H](N4CCN(C(C)=O)CC4)CC3)c3ncnc(N)c23)ccc1NC(=O)c1cc2ccccc2n1C + NC(=O)Nc1cc(-c2cccc(F)c2)sc1C(=O)N[C@H]1CCCNC1 [AZD7762] (partner 0.2 µM)
# Method in brief: as §1
# [3] = compound: CO[C@@H]1[C@H](N(C)C(=O)c2ccccc2)C[C@H]2O[C@]1(C)n1c3ccccc3c3c4c(c5c6ccccc6n2c5c31)C(=O)NC4 [Midostaurin] + CS(=O)(=O)N1CCN(Cc2cc3nc(-c4cccc5[nH]ncc45)nc(N4CCOCC4)c3s2)CC1 [Pictilisib] (partner 1 µM)
# Method in brief: as §1
# [4] = compound: CO[C@@H]1[C@H](N(C)C(=O)c2ccccc2)C[C@H]2O[C@]1(C)n1c3ccccc3c3c4c(c5c6ccccc6n2c5c31)C(=O)NC4 [Midostaurin] + O=C(CCCCCCC(=O)Nc1ccccc1)NO [Vorinostat] (partner 1 µM)
# Method in brief: as §1
# [5] = compound: CO[C@@H]1[C@H](N(C)C(=O)c2ccccc2)C[C@H]2O[C@]1(C)n1c3ccccc3c3c4c(c5c6ccccc6n2c5c31)C(=O)NC4 [Midostaurin] + COc1cc2c(Oc3ccc(NC(=O)C4(C(=O)Nc5ccc(F)cc5)CC4)cc3F)ccnc2cc1OCCCN1CCOCC1 [Foretinib] (partner 0.25 µM)
# Method in brief: as §1
Cell Line,relative viability ([1]; first compound 0.0128 µM),relative viability ([1]; first compound 0.04048 µM),relative viability ([1]; first compound 0.128 µM),relative viability ([1]; first compound 1.28 µM),relative viability ([2]; first compound 0.0128 µM),relative viability ([2]; first compound 0.04048 µM),relative viability ([2]; first compound 0.128 µM),relative viability ([2]; first compound 1.28 µM),relative viability ([3]; first compound 0.01 µM),relative viability ([3]; first compound 0.03162 µM),relative viability ([3]; first compound 0.1 µM),relative viability ([3]; first compound 0.3162 µM),relative viability ([4]; first compound 0.01 µM),relative viability ([4]; first compound 0.03162 µM),relative viability ([4]; first compound 0.1 µM),relative viability ([4]; first compound 0.3162 µM),relative viability ([5]; first compound 0.01 µM),relative viability ([5]; first compound 0.03162 µM),relative viability ([5]; first compound 0.1 µM),relative viability ([5]; first compound 0.3162 µM)
NCI-H1993,0.504,0.489,0.562,0.481,0.823,0.549,0.715,0.752,0.775,0.817,0.898,0.722,0.83,0.782,0.87,0.38,0.863,0.761,0.765,0.935
NCI-H2085,0.611,0.643,0.405,0.334,1.08,0.929,0.854,0.427,0.501,0.428,0.448,0.446,0.79,0.783,0.822,0.637,1.02,0.845,0.863,0.555
NCI-H2087,0.209,,0.207,0.17,1.31,,1.18,1.08,0.851,0.769,0.979,1.18,0.56,0.528,0.462,0.429,1.15,0.942,1.21,0.775
NCI-H2126,0.55,0.497,0.508,0.448,1.06,0.988,0.976,0.817,0.541,0.441,0.499,0.523,0.812,0.631,0.866,0.831,1.19,1.14,1.04,1.15
NCI-H2170,0.992,0.797,0.919,0.876,0.914,0.928,0.788,0.6,0.31,0.28,0.301,0.317,0.857,0.843,0.774,0.699,1.05,0.951,0.477,0.735
NCI-H2347,0.292,0.236,0.263,0.225,0.773,0.55,0.64,0.565,0.48,0.493,0.648,0.634,0.575,0.511,0.602,0.419,1.2,1.13,0.841,1.5
NCI-H2405,0.645,0.307,0.532,0.347,0.707,0.615,0.573,0.349,0.464,0.516,,0.379,1.05,1.24,1.01,1.02,1.05,0.985,1.01,0.96
NCI-H3122,0.209,,0.165,0.162,1.06,,0.958,0.845,0.681,0.583,0.64,0.734,0.963,0.904,0.905,0.89,0.926,0.94,0.718,0.976
PC-3 [JPC-3],0.746,0.705,0.678,0.802,0.654,0.877,0.834,0.76,0.787,0.623,0.785,0.789,0.776,0.788,0.68,1.07,1.05,0.942,1.02,0.959
PC-14,0.819,0.721,0.663,0.569,0.42,0.417,0.365,0.355,0.674,0.61,0.633,0.75,0.719,0.673,0.67,0.666,0.984,0.924,0.909,0.899
RERF-LC-KJ,0.844,0.818,0.867,0.749,0.911,0.949,0.981,0.749,0.501,0.51,0.579,0.46,0.715,0.709,0.67,0.646,0.915,0.866,0.939,0.936
